The target of one assay is T1, PTPN2 (i.e., TC-PTP) (Homo sapiens, UniProt P17706).
T1 sequence (P17706 1-415): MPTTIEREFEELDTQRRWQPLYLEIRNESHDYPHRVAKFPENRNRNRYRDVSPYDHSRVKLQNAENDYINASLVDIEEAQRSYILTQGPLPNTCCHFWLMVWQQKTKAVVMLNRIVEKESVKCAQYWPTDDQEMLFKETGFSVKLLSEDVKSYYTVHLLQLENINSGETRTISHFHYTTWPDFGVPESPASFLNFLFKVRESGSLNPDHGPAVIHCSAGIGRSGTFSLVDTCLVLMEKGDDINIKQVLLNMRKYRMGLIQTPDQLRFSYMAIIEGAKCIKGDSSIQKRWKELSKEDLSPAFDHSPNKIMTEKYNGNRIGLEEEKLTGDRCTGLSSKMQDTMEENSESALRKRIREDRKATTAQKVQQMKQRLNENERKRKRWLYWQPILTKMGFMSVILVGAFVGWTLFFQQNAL
The experiment in a line: Phosphatase activity assay (DiFMUP substrate), PTPN2. Type of assay: biochemical. As to conditions: compounds binned ≤1 uM or >1 uM. Summed up:
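Using a Km-level DiFMUP substrate and 0.025 ng/ul PTPN2, phosphatase activity is tracked by DiFMU emission at 450 nm over about 15–30 minutes. Initial rates at ten inhibitor concentrations give IC50 by four-parameter fitting.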

For a further assay, the target named is T2, PTPN1 (i.e., PTP1B) (Homo sapiens, UniProt P18031).
T2 sequence (P18031 1-435): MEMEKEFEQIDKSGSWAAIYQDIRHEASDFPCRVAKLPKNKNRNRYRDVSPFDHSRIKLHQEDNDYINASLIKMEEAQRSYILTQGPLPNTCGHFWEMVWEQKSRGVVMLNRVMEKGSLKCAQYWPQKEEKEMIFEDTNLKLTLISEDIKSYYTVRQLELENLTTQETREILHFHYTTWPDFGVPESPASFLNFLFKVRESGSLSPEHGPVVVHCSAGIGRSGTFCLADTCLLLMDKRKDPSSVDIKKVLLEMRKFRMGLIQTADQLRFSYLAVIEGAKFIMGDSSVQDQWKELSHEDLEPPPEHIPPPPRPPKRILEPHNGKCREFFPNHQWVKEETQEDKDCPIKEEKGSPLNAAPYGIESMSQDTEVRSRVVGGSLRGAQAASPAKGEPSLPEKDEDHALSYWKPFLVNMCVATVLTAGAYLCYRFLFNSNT
The experiment in a line: Phosphatase activity assay (DiFMUP substrate), PTP1B. Type of assay: biochemical. As to conditions: compounds binned ≤1 uM or >1 uM. The essentials:
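Read-out is continuous fluorescence of DiFMU (360 nm excitation, 450 nm emission) over about 15-30 minutes, with DiFMUP substrate at the enzyme's independently determined Km (PTPN2 approx. 45 μM final). Buffer: 50 mM HEPES pH 7.5, 150 mM NaCl, 0.5 mM EDTA, 1 mM DTT, 0.001% Tween-20, room temperature; initial rates versus 10-point dilution fitted for IC50, at least duplicate.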

For orientation: IC50 means the midpoint of a concentration-inhibition curve. Take `O=C1CN(c2c(O)ccc(-n3cc(C4CC4)cn3)c2F)S(=O)(=O)N1` [Compound 270, 5-(3-(4-cyclopropyl-1H-pyrazol-1-yl)-2-fluoro-6-hydroxyphenyl)-1,2,5-thiadiazolidin-3-one 1,1-dioxide]: the IC50 on PTPN2 (i.e., TC-PTP) was more than 1000 nM; on PTPN1 (i.e., PTP1B), more than 1000 nM.

Consider `CN1CC2(CCC(n3cc(-c4ccc(O)c(N5CC(=O)NS5(=O)=O)c4F)cn3)CC2)C1` [Compound 271, 5-(2-fluoro-6-hydroxy-3-(1-(2-methyl-2-azaspiro[3.5]nonan-7-yl)-1H-pyrazol-4-yl)phenyl)-1,2,5-thiadiazolidin-3-one 1,1-dioxide], for which the IC50 is not above 1000 nM at PTPN2 (i.e., TC-PTP) and not above 1000 nM at PTPN1 (i.e., PTP1B).

As for `O=C1CN(c2c(O)ccc(-c3ccn(CC4CCCCC4)c3)c2F)S(=O)(=O)N1` [Compound 272, 5-(3-(1-(cyclohexylmethyl)-1H-pyrrol-3-yl)-2-fluoro-6-hydroxyphenyl)-1,2,5-thiadiazolidin-3-one 1,1-dioxide], the IC50 on PTPN2 (i.e., TC-PTP) was not above 1000 nM; at PTPN1 (i.e., PTP1B), not above 1000 nM.

On to `O=C1CN(c2c(O)ccc(-c3cnn(C(F)F)c3)c2F)S(=O)(=O)N1` [Compound 273, 5-(3-(1-(difluoromethyl)-1H-pyrazol-4-yl)-2-fluoro-6-hydroxyphenyl)-1,2,5-thiadiazolidin-3-one 1,1-dioxide], for which the IC50 on PTPN2 (i.e., TC-PTP) was not above 1000 nM; at PTPN1 (i.e., PTP1B), not above 1000 nM.

Consider `COCC#Cc1cc(-c2ccc(O)c(N3CC(=O)NS3(=O)=O)c2F)[nH]n1` [Compound 274, 5-(2-fluoro-6-hydroxy-3-(3-(3-methoxyprop-1-yn-1-yl)-1H-pyrazol-5-yl)phenyl)-1,2,5-thiadiazolidin-3-one 1,1-dioxide], for which the IC50 on PTPN2 (i.e., TC-PTP) was not above 1000 nM; on PTPN1 (i.e., PTP1B), not above 1000 nM.

On to `O=C1CN(c2c(O)ccc(-c3cnn(C4CN(C5CC5)C4)c3)c2F)S(=O)(=O)N1` [Compound 275, 5-(3-(1-(1-cyclopropylazetidin-3-yl)-1H-pyrazol-4-yl)-2-fluoro-6-hydroxyphenyl)-1,2,5-thiadiazolidin-3-one 1,1-dioxide], for which the IC50 was not above 1000 nM on PTPN2 (i.e., TC-PTP) and not above 1000 nM on PTPN1 (i.e., PTP1B).

For `CCCN1CCCC(c2ccc(O)c(N3CC(=O)NS3(=O)=O)c2F)C1` (centres unmarked) [Compound 276, 5-(2-fluoro-6-hydroxy-3-(1-propylpiperidin-3-yl)phenyl)-1,2,5-thiadiazolidin-3-one 1,1-dioxide], the IC50 was more than 1000 nM at PTPN2 (i.e., TC-PTP) and not above 1000 nM on PTPN1 (i.e., PTP1B).

Take `O=C1C=C(c2c(O)ccc(-c3cn(CC4CCCCC4)cn3)c2F)S(=O)(=O)N1` [Compound 277, 5-(3-(1-(cyclohexylmethyl)-1H-imidazol-4-yl)-2-fluoro-6-hydroxyphenyl)isothiazol-3(2H)-one 1,1-dioxide]: the 50% inhibitory concentration (IC50) on PTPN2 (i.e., TC-PTP) is not above 1000 nM; on PTPN1 (i.e., PTP1B), not above 1000 nM.

On to `Cn1nc(C2CC2)cc1-c1ccc(O)c(N2CC(=O)NS2(=O)=O)c1F` [Compound 278, 5-(3-(3-cyclopropyl-1-methyl-1H-pyrazol-5-yl)-2-fluoro-6-hydroxyphenyl)-1,2,5-thiadiazolidin-3-one 1,1-dioxide], for which the IC50 at PTPN2 (i.e., TC-PTP) is not above 1000 nM; at PTPN1 (i.e., PTP1B), not above 1000 nM.

As to `CC1(N)CCN(c2cc(-c3ccc(O)c(N4CC(=O)NS4(=O)=O)c3F)[nH]n2)C1` (centres unmarked) [Compound 279, 5-(3-(3-(3-amino-3-methylpyrrolidin-1-yl)-1H-pyrazol-5-yl)-2-fluoro-6-hydroxyphenyl)-1,2,5-thiadiazolidin-3-one 1,1-dioxide], the IC50 at PTPN2 (i.e., TC-PTP) is not above 1000 nM; at PTPN1 (i.e., PTP1B), not above 1000 nM.

Take `N#C[C@H]1CC[C@@H](n2cc(-c3ccc(O)c(N4CC(=O)NS4(=O)=O)c3F)cn2)CC1` [Compound 280, (1s,4s)-4-(4-(3-(1,1-dioxido-4-oxo-1,2,5-thiadiazolidin-2-yl)-2-fluoro-4-hydroxyphenyl)-1H-pyrazol-1-yl)cyclohexane-1-carbonitrile]: the IC50 was not above 1000 nM on PTPN2 (i.e., TC-PTP) and not above 1000 nM on PTPN1 (i.e., PTP1B).

As for `O=C1CN(c2c(O)ccc(-c3cc(C4CCC4)n[nH]3)c2F)S(=O)(=O)N1` [Compound 281, 5-(3-(3-cyclobutyl-1H-pyrazol-5-yl)-2-fluoro-6-hydroxyphenyl)-1,2,5-thiadiazolidin-3-one 1,1-dioxide], the IC50 at PTPN2 (i.e., TC-PTP) was not above 1000 nM; at PTPN1 (i.e., PTP1B), not above 1000 nM.

Take `CC1C=C(c2ccc(O)c(N3CC(=O)NS3(=O)=O)c2F)CN1` (centres unmarked) [Compound 282, 5-(2-fluoro-6-hydroxy-3-(5-methyl-2,5-dihydro-1H-pyrrol-3-yl)phenyl)-1,2,5-thiadiazolidin-3-one 1,1-dioxide]: the half-inhibitory concentration (IC50) at PTPN2 (i.e., TC-PTP) is not above 1000 nM; at PTPN1 (i.e., PTP1B) it was not above 1000 nM.

Consider `Cc1cc(-c2ccc(O)c(N3CC(=O)NS3(=O)=O)c2F)sn1` [Compound 283, 5-(2-fluoro-6-hydroxy-3-(3-methylisothiazol-5-yl)phenyl)-1,2,5-thiadiazolidin-3-one 1,1-dioxide], for which the IC50 at PTPN2 (i.e., TC-PTP) was not above 1000 nM; on PTPN1 (i.e., PTP1B) it was not above 1000 nM.

Consider `Cc1cc(-c2ccc(O)c(N3CC(=O)NS3(=O)=O)c2F)n(C)n1` [Compound 284, 5-(3-(1,3-dimethyl-1H-pyrazol-5-yl)-2-fluoro-6-hydroxyphenyl)-1,2,5-thiadiazolidin-3-one 1,1-dioxide], for which the IC50 at PTPN2 (i.e., TC-PTP) is not above 1000 nM; at PTPN1 (i.e., PTP1B), not above 1000 nM.

Take `O=C1CN(c2c(O)ccc(C3CCN(S(=O)(=O)C4CC4)CC3)c2F)S(=O)(=O)N1` [Compound 285, 5-(3-(1-(cyclopropylsulfonyl)piperidin-4-yl)-2-fluoro-6-hydroxyphenyl)-1,2,5-thiadiazolidin-3-one 1,1-dioxide]: the IC50 on PTPN2 (i.e., TC-PTP) is not above 1000 nM; at PTPN1 (i.e., PTP1B), not above 1000 nM.

Turning to `O=C1CN(c2c(O)ccc(-c3cc(N4CCOCC4)n[nH]3)c2F)S(=O)(=O)N1` [Compound 286, 5-(2-fluoro-6-hydroxy-3-(3-morpholino-1H-pyrazol-5-yl)phenyl)-1,2,5-thiadiazolidin-3-one 1,1-dioxide], the IC50 at PTPN2 (i.e., TC-PTP) was not above 1000 nM; at PTPN1 (i.e., PTP1B), not above 1000 nM.

With `N#Cc1ccc(-n2cnc(-c3ccc(O)c(N4CC(=O)NS4(=O)=O)c3F)c2)cc1F` [Compound 287, 4-(4-(3-(1,1-dioxido-4-oxo-1,2,5-thiadiazolidin-2-yl)-2-fluoro-4-hydroxyphenyl)-1H-imidazol-1-yl)-2-fluorobenzonitrile], the IC50 is not above 1000 nM at PTPN2 (i.e., TC-PTP) and not above 1000 nM on PTPN1 (i.e., PTP1B).

As for `CC(C)CNCc1cc(-c2ccc(O)c(N3CC(=O)NS3(=O)=O)c2F)nn1C` [Compound 288, 5-(2-fluoro-6-hydroxy-3-(5-((isobutylamino)methyl)-1-methyl-1H-pyrazol-3-yl)phenyl)-1,2,5-thiadiazolidin-3-one 1,1-dioxide], the concentration for half-maximal inhibition (IC50) was not above 1000 nM at PTPN2 (i.e., TC-PTP) and not above 1000 nM at PTPN1 (i.e., PTP1B).

On to `O=C1CN(c2c(O)ccc(-c3cn(-c4ccc(F)c(F)c4)cn3)c2F)S(=O)(=O)N1` [Compound 289, 5-(3-(1-(3,4-difluorophenyl)-1H-imidazol-4-yl)-2-fluoro-6-hydroxyphenyl)-1,2,5-thiadiazolidin-3-one 1,1-dioxide], for which the IC50 on PTPN2 (i.e., TC-PTP) was not above 1000 nM; at PTPN1 (i.e., PTP1B), not above 1000 nM.

Consider `CC(C)CCCc1cc(-c2ccc(O)c(N3CC(=O)NS3(=O)=O)c2F)[nH]n1` [Compound 290, 5-(2-fluoro-6-hydroxy-3-(3-(4-methylpentyl)-1H-pyrazol-5-yl)phenyl)-1,2,5-thiadiazolidin-3-one 1,1-dioxide], for which the concentration for half-maximal inhibition (IC50) at PTPN2 (i.e., TC-PTP) is not above 1000 nM; on PTPN1 (i.e., PTP1B), not above 1000 nM.

For `O=C1CN(c2c(O)ccc(C3=CCOC3)c2F)S(=O)(=O)N1` [Compound 291, 5-(3-(2,5-dihydrofuran-3-yl)-2-fluoro-6-hydroxyphenyl)-1,2,5-thiadiazolidin-3-one 1,1-dioxide], the IC50 at PTPN2 (i.e., TC-PTP) was not above 1000 nM; at PTPN1 (i.e., PTP1B), not above 1000 nM.

For the compound `O=C1CN(c2c(O)ccc(-c3ccc(NS(=O)(=O)C4CC4)cc3)c2F)S(=O)(=O)N1` [Compound 292, N-(3′-(1,1-dioxido-4-oxo-1,2,5-thiadiazolidin-2-yl)-2′-fluoro-4′-hydroxy-[1,1′-biphenyl]-4-yl)cyclopropanesulfonamide], the IC50 on PTPN2 (i.e., TC-PTP) was not above 1000 nM; on PTPN1 (i.e., PTP1B) it was not above 1000 nM.

On to `CC(C)(C)n1cc(-c2ccc(O)c(N3CC(=O)NS3(=O)=O)c2F)cn1` [Compound 293, 5-(3-(1-(tert-butyl)-1H-pyrazol-4-yl)-2-fluoro-6-hydroxyphenyl)-1,2,5-thiadiazolidin-3-one 1,1-dioxide], for which the IC50 at PTPN2 (i.e., TC-PTP) was not above 1000 nM; on PTPN1 (i.e., PTP1B), not above 1000 nM.

Regarding `O=C1CN(c2c(O)ccc(C3=CCSCC3)c2F)S(=O)(=O)N1` [Compound 294, 5-(3-(3,6-dihydro-2H-thiopyran-4-yl)-2-fluoro-6-hydroxyphenyl)-1,2,5-thiadiazolidin-3-one 1,1-dioxide], the half-maximal inhibitory concentration (IC50) at PTPN2 (i.e., TC-PTP) was not above 1000 nM; at PTPN1 (i.e., PTP1B) it was not above 1000 nM.

The record behind these values is patent publication US20240398828A1, “HETERO-ATOM CONTAINING COMPOUNDS AND USES THEREOF” (Kumquat Biosciences Inc., priority 2021, published 2024).
